Columns and labels:
[1] = tested on: human colon adenocarcinoma (HT-29); test: MTT viability test, (S)-NAP 24 h; assay type: cell-based; details: HT-29, NAP dosage 1.5-5.0 mM, concentration limited by NAP solubility
Protocol: (§1) The effect of (S)-NAP on the viability of human colon adenocarcinoma cells with increasing degrees of malignancy was first evaluated. Caco2, HT-29, HCT-116 and a normal control cell MDCK, a […] kidney cell. Proliferation assays
(§2) (i) Cell cultures: Lineages of human colon adenocarcinoma cells with decreasing malignancy levels, HCT 116, HT-29 and Caco-2, were used. As a control of the epithelial cell model, a normal cell line of drainage epithelium (IEC-6) was used. These cells were cultured according to the ATCC specifications and maintained in a DMEM medium in an oven, with 5% CO2, at 37° C. until reaching semiconfluence.
(§3) (ii) Treatments: Initially, concentrations of sodium perylate (1.0, 1.8, 2.6, 3.4, 4.2 and 5.0 mM) were tested to determine the IC50 of the drug. Monolayers of semiconfluent cells were serum-depleted for 24 hours before treatment with (S)-NAP and during the treatment for 24 h.
(§4) (iii) Viability test: The lineages were plated in 96-well flat-bottom plates with DMEM culture medium containing the different (S)-NAP concentrations described above. Cell incubation with (S)-NAP was conducted for 24 h, at 37° C., upon which, the plates were incubated for 2 h with MTT [3-(4,5-dimethylthiazol-2-yl)-2,5diphenyltetrazolium bromide] 2.5 mg/ml, at a final concentration of 250 μg/ml. The plates were centrifuged at 1200 RPM, at 4° C., for 5 minutes, poured to remove the supernatant, since the crystals had deposited inside the cells. Formazan crystals were dissolved into […] of DMSO and homogenized manually and through the device. Absorbances were determined at 538 nm in a plate reader (Spectra Max 190). Controls of 100% viability, with no drug addition, and of 0% viability using formaldehyde were carried out simultaneously with the experiment.

[2] = tested on: human colon adenocarcinoma (HCT-116); test: MTT viability test, (S)-NAP 24 h; assay type: cell-based; details: HCT-116, NAP dosage 1.0-5.0 mM
Protocol: as §1, §2, §3, §4

[3] = tested on: human colon adenocarcinoma (Caco-2); test: MTT viability test, (S)-NAP 24 h; assay type: cell-based; details: Caco-2, NAP dosage 1.5-5.0 mM
Protocol: as §1, §2, §3, §4

[4] = tested on: MCF7 (breast tumor) cells; test: anti-proliferative assay (MTT, 48 h); assay type: cell-based, human; details: MCF7, 0.01 to 100 μM
Protocol: (§5) Example 6 was carried out to determine the biological activity of the following samples: (S)-perillyl alcohol, (S)-AP, (R)-AP, (S)-NAP, and (R)-NAP on human tumor lineages. (S)-perillyl alcohol was tested in combination with the samples of sodium acids and salts, because it is a substance which is considered to have some established clinical efficacy.
(§6) Samples (R)-AP, (S)-AP, (R)-NAP, (S)-NAP and perillyl alcohol (POH) were received and solubilized in DMSO or saline solution (NaCl 0.9%) and conserved at −20° C. until the day of the experiment, when they were immediately diluted before use, in a cell culture medium, DMEM, enriched with 10% fetal bovine serum, […] penicillin, and 0.1 mg/ml streptomycin, and 0.05 mg/ml gentamicin (DMEM complete medium). The experiments were carried out according to the Standard Operational Procedure of the Laboratory of Molecular Pharmacology FARMO1003 version 00, which are summarized below.
(§7) K562 (leukemia), LUCENA (multi-drug resistant leukemia), SKMEL28 (melanoma) and MCF7 (breast tumor) cells were cultivated on a DEM complete culture medium, and kept in log growth phase. Twenty-four hours before the treatment with the samples, 100 μl of the cell suspension (5×10^4 cells/ml) were added to wells of 96-well plates and kept in the oven at 5% CO2 atmosphere, at 37° C.
(§8) The treatment for each of the five samples was carried out in response dosage (0.01 to 100 μM; 5 spots), each concentration in triplicate.
(§9) After 48 hours, thiazolyl blue was added (MTT; SIGMA code M5655) and the plate was kept in the oven with CO2 for 4 hours. After the incubation time, the supernatant was aspirated and formazan crystals, formed by the cellular activity, were solubilized with isopropyl alcohol and, after full solubilization, the optical density determination was carried out in a microplate reader at 570 nm (VictorX5; Perkin Elmer USA).

[5] = tested on: Lucena (multi-drug resistant leukemia) cells; test: anti-proliferative assay (MTT, 48 h); assay type: cell-based, human; details: 0.01 to 100 μM
Protocol: as §5, §6, §7, §8, §9

K562 (leukemia) cells = test: anti-proliferative assay (MTT, 48 h); assay type: cell-based, human; details: K562, 0.01 to 100 μM
Protocol: as §5, §6, §7, §8, §9

SKMEL28 (melanoma) cells = test: anti-proliferative assay (MTT, 48 h); assay type: cell-based, human; details: SKMEL, 0.01 to 100 μM
Protocol: as §5, §6, §7, §8, §9

[6] = solubility in an aqueous medium; assay type: physicochemical; details: relative to POH and PA

C=C(C)[C@@H]1CC=C(C(=O)[O-])CC1.[Na+] [(S)-NAP, sodium perylate]
IC50 [1]: > 5000 µM | IC50 [2]: > 3400 µM | Result (viability) [3]: Refractory | inhibition (in words) [4]: no inhibition making IC50 calculation necessary

C=C(C)C1CC=C(C(=O)[O-])CC1.[Na+] (stereo in doubt) [(R)-NAP, sodium perylate]
IC50 [5]: 0.013 µM | IC50 (K562 (leukemia) cells): 1.24 µM | inhibition (in words) (SKMEL28 (melanoma) cells): no inhibition making IC50 calculation necessary

C=C(C)[C@@H]1CC=C(CO)CC1 [POH, perillyl alcohol]
inhibition (in words) [4]: no inhibition making IC50 calculation necessary

C=C(C)[C@H]1CC=C(C(=O)O)CC1 [(R)-PA, perillic acid]
inhibition (in words) [4]: no inhibition making IC50 calculation necessary

C=C(C)[C@@H]1CC=C(C(=O)O)CC1 [(S)-PA, perillic acid, reference compound]
inhibition (in words) [4]: no inhibition making IC50 calculation necessary | inhibition (in words) (SKMEL28 (melanoma) cells): no inhibition making IC50 calculation necessary

C=C(C)C1CC=C(C(=O)[O-])CC1.[Na+] (stereo not drawn) [NAP, sodium perylate]
solubility in an aqueous medium compared with POH and PA [6]: higher
